This note sets out measurements from ChEMBL document CHEMBL4251642 (Eur J Med Chem, 2018).

SMILES strings stand for the structures. The source made the active and inactive calls. No cut-off for these calls is given here.

The subject of series [1] is Influenza A virus. In words: Antiviral activity against Influenza A virus (A/WSN/1933(H1N1)) harboring neuraminidase H275Y mutant infected in MDCK cells assessed as inhibition of virus-induced cytopathic effect after 48 hrs by CellTiter96 Aqueous non-radioactive cell proliferation assay. In kind it is functional, organism-based. (Cytopathic effects are the visible damage that an infection or toxin causes in cultured cells.)

The test system of another series is Mus musculus. In words: Toxicity in BALB/c mouse infected with Influenza A virus (A/WSN/1933(H1N1)) harboring neuraminidase H275Y mutant assessed as change in body weight at 0.96 umol/day, po for 5 consecutive days. Particulars: in vivo. It counts as organism-based.
Series [2] relates to Influenza A virus. As to the kind of experiment: Antiviral activity against Influenza A virus (A/WSN/1933(H1N1)) harboring neuraminidase H275Y mutant infected in BALB/c mouse assessed as recovery of mouse weight at 0.96 umol/day, po for 5 consecutive days measured on day 14 post dose. In kind it is functional, organism-based.
Series [3] concerns Influenza A virus. As to the kind of experiment: Antiviral activity against Influenza A virus (A/WSN/1933(H1N1)) harboring neuraminidase H275Y mutant infected in BALB/c mouse assessed as mouse survival at 0.96 umol/day, po for 5 consecutive days measured on day 14 post dose. In kind it is functional.
Series [4] deals with Influenza A virus. As to the kind of experiment: Antiviral activity against Influenza A virus (A/WSN/1933(H1N1)) harboring neuraminidase H275Y mutant infected in BALB/c mouse assessed as mouse survival at 0.96 umol/day, po for 5 consecutive days measured on day 10 post dose. It counts as functional.

By EC50 is commonly meant the midpoint of the concentration-response curve. Turning to `CCC(CC)[C@H](NC(C)=O)[C@@H]1[C@H](O)[C@@H](C(=O)O)C[C@H]1NC(=N)N` [PERAMIVIR ANHYDROUS], the EC50 in the series with Influenza A virus [1] was 643 nM.
With `CCC(CC)[C@H](NC(C)=O)[C@@H]1[C@H](OC(=O)NCCCNC(=O)/C=C/c2ccc(O)c(O)c2)[C@@H](C(=O)O)C[C@H]1NC(=N)N`, the Activity result with Mus musculus was “Non-Toxic”. In the series with Influenza A virus [2], the outcome was Active. The EC50 in the series with Influenza A virus [1] stood at 18.1 nM. For the same compound, the Survival in the series on Influenza A virus [3] stood at 90%.
As for `CCC(CC)[C@H](NC(C)=O)[C@@H]1[C@H](OC(=O)NCCCN)[C@@H](C(=O)O)C[C@H]1NC(=N)N`, the EC50 in the series with Influenza A virus [1] came out at 405 nM.
With `CCC(CC)[C@H](NC(C)=O)[C@@H]1[C@H](OC(=O)NCCCOC(=O)/C=C/c2ccc(O)c(O)c2)[C@@H](C(=O)O)C[C@H]1NC(=N)N`, the Activity result in the series with Mus musculus is on record as “Non-Toxic”. Further, the outcome in the series on Influenza A virus [2] and in the series on Influenza A virus [3] was Active. Also, in the series with Influenza A virus [1], the concentration giving a half-maximal response (EC50) is 15.5 nM.
Turning to `CCC(CC)[C@H](NC(C)=O)[C@@H]1[C@H](OC(=O)NCCCO)[C@@H](C(=O)O)C[C@H]1NC(=N)N`, the EC50 in the series on Influenza A virus [1] was found to be 1010 nM.
For the compound `CCOC(=O)C1=C[C@@H](OC(CC)CC)[C@H](NC(C)=O)[C@@H](N)C1` [OSELTAMIVIR], the Survival in the series with Influenza A virus [4] is reported as 20%.
Consider `CCC(CC)OC1C=C(C(=O)O)C[C@H](N)[C@H]1NC(C)=O` (some centres not stated), for which the EC50 in the series with Influenza A virus [1] came out at 3520 nM.
As for `CCC(CC)[C@H](NC(C)=O)[C@@H]1[C@H](OC(=O)NCCCOCCCc2ccc(O)c(O)c2)[C@@H](C(=O)O)C[C@H]1NC(=N)N`, the Activity entry with Mus musculus is on record as “Non-Toxic”. Besides, the outcome in the series with Influenza A virus [2] and in the series with Influenza A virus [3] was Active. In the series on Influenza A virus [1], the EC50 is 71.6 nM.
